Measurements: ChEMBL document CHEMBL4800728, “Data for DCP probe JNJ-54119936” (2021)

Legend:
[1] = molecular target: T1, Estrogen receptor (Homo sapiens) (UniProt P03372); assay: ERalpha In-house nuclear receptor screen; settings: Compound concentration 3.0 uM
T1 sequence (whole entry): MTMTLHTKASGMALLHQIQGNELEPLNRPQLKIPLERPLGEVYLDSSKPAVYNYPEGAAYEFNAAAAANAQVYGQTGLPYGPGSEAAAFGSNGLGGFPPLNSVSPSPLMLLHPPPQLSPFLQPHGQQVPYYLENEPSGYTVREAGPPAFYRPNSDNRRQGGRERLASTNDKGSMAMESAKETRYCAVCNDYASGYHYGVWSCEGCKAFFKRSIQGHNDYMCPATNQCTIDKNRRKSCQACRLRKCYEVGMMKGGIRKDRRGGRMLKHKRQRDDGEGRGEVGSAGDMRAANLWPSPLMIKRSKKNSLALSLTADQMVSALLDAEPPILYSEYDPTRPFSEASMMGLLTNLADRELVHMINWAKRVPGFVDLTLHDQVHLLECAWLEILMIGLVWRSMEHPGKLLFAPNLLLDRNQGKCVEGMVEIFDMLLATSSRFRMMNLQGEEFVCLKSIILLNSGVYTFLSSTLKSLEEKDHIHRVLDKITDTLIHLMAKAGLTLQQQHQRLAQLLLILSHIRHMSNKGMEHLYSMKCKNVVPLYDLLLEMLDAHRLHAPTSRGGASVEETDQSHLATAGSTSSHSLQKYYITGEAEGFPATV

[2] = molecular target: Sodium-dependent dopamine transporter (Homo sapiens) (UniProt Q01959); assay: dopamine transporter (h) CEREP screen
[3] = molecular target: T2, Peroxisome proliferator-activated receptor delta (Homo sapiens) (UniProt Q03181); assay: PPARdelta Indigo Bioscience nuclear receptor screen
T2 sequence (whole entry): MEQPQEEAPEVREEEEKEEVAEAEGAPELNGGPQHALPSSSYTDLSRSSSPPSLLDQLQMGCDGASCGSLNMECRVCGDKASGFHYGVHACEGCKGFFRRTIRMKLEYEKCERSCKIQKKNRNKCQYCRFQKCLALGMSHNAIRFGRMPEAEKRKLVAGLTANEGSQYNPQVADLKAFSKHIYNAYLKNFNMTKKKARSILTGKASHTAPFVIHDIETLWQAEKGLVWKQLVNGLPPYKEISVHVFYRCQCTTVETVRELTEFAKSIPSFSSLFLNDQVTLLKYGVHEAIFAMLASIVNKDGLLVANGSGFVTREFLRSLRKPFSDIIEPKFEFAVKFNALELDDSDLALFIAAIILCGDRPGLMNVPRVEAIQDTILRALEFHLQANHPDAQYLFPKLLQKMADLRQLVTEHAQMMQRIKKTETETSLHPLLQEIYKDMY

[4] = molecular target: Adenosine receptor A2a (Homo sapiens) (UniProt P29274); assay: A2a (h) CEREP screen
[5] = molecular target: Melatonin receptor type 1A (Homo sapiens) (UniProt P48039); assay: MT1 (ML1A) (h) CEREP screen; settings: Compound concentration 10.0 uM
[6] = molecular target: Sodium-dependent dopamine transporter (Homo sapiens) (UniProt Q01959); settings: Compound concentration 10.0 uM
[7] = molecular target: T3, Peroxisome proliferator-activated receptor gamma (Homo sapiens) (UniProt P37231); assay: PPARgamma Indigo Bioscience nuclear receptor screen
T3 sequence (whole entry): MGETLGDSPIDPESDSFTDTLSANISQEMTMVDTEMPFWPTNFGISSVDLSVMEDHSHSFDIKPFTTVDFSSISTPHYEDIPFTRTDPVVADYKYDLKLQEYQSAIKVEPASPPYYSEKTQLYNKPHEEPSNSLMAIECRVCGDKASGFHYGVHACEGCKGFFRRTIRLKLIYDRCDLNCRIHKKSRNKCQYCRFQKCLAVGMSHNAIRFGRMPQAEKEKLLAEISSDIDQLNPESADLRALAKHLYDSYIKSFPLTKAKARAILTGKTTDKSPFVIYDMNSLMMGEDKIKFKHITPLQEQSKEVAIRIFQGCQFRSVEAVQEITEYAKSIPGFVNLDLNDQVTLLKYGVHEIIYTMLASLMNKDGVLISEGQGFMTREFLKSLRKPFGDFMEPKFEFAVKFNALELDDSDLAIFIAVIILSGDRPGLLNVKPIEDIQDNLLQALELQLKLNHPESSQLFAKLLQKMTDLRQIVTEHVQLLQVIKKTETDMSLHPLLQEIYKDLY

[8] = molecular target: Histamine H1 receptor (Homo sapiens) (UniProt P35367); assay: H1 (h) CEREP screen; settings: Compound concentration 1.0 uM
[9] = molecular target: Muscarinic acetylcholine receptor M3 (Homo sapiens) (UniProt P20309); settings: Compound concentration 10.0 uM
[10] = molecular target: Glycogen synthase kinase-3 alpha (Homo sapiens) (UniProt P49840); assay: GSK3alpha Invitrogen kinase panel; settings: Compound concentration 10.0 uM
[11] = molecular target: 5-hydroxytryptamine receptor 6 (Homo sapiens) (UniProt P50406); assay: 5-HT6 (h) CEREP screen
[12] = molecular target: Mitogen-activated protein kinase 1 (Homo sapiens) (UniProt P28482); assay: ERK2 Invitrogen kinase panel; settings: Compound concentration 10.0 uM
[13] = molecular target: Serine/threonine-protein kinase pim-2 (Homo sapiens) (UniProt Q9P1W9); assay: Pim2 Invitrogen kinase panel; settings: Compound concentration 10.0 uM
[14] = molecular target: D(2) dopamine receptor (Homo sapiens) (UniProt P14416); settings: Compound concentration 10.0 uM
[15] = molecular target: Histamine H1 receptor (Homo sapiens) (UniProt P35367); settings: Compound concentration 10.0 uM
[16] = molecular target: Tyrosine-protein kinase JAK2 (Homo sapiens) (UniProt O60674); assay: JAK2 Invitrogen kinase panel; settings: Compound concentration 10.0 uM
[17] = molecular target: 5-hydroxytryptamine receptor 1D (Homo sapiens) (UniProt P28221); settings: Compound concentration 10.0 uM
[18] = molecular target: Aurora kinase B (Homo sapiens) (UniProt Q96GD4); assay: Aurora_B Invitrogen kinase panel; settings: Compound concentration 10.0 uM
[19] = molecular target: cAMP-dependent protein kinase catalytic subunit alpha (Homo sapiens) (UniProt P17612); assay: PKA Invitrogen kinase panel; settings: Compound concentration 10.0 uM
[20] = molecular target: Activin receptor type-1B (Homo sapiens) (UniProt P36896); assay: Alk4 Invitrogen kinase panel; settings: Compound concentration 10.0 uM
[21] = molecular target: Tyrosine-protein kinase ZAP-70 (Homo sapiens) (UniProt P43403); assay: ZAP_70 Invitrogen kinase panel; settings: Compound concentration 10.0 uM
[22] = molecular target: Tyrosine-protein kinase Blk (Homo sapiens) (UniProt P51451); assay: Blk Invitrogen kinase panel; settings: Compound concentration 10.0 uM
Sequence of Tyrosine-protein kinase Blk (Homo sapiens) (P51451 2-505 limits assumed): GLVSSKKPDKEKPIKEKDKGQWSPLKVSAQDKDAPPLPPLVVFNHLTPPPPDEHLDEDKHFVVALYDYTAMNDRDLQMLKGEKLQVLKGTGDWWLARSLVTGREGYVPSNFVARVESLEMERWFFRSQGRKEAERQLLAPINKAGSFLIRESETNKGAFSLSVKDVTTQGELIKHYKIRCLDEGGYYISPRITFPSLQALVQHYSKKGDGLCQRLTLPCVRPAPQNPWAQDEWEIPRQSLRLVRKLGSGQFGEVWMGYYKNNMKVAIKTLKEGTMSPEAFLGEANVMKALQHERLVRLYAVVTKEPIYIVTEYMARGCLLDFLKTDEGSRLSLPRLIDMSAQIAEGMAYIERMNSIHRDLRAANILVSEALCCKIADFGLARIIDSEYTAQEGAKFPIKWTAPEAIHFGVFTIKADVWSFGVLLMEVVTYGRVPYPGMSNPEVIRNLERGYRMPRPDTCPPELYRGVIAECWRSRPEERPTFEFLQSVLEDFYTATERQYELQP

Sequence of Sodium-dependent dopamine transporter (Homo sapiens) (Q01959 whole entry): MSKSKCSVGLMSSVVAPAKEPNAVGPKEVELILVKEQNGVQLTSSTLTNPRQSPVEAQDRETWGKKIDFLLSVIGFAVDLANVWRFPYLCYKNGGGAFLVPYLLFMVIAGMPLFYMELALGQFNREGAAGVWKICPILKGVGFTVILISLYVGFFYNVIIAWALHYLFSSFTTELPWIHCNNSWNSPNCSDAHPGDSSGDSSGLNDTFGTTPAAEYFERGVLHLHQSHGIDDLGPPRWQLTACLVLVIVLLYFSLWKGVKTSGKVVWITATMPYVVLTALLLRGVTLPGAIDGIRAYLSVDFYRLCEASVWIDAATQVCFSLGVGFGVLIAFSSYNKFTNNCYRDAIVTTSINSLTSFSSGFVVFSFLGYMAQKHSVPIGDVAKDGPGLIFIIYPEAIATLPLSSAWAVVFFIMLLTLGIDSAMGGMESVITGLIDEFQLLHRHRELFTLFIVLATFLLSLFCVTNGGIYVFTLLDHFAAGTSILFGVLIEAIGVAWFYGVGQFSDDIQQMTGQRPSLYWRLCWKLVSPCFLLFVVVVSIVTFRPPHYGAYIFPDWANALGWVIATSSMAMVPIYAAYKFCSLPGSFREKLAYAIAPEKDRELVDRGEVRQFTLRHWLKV
Sequence of Histamine H1 receptor (Homo sapiens) (P35367 whole entry): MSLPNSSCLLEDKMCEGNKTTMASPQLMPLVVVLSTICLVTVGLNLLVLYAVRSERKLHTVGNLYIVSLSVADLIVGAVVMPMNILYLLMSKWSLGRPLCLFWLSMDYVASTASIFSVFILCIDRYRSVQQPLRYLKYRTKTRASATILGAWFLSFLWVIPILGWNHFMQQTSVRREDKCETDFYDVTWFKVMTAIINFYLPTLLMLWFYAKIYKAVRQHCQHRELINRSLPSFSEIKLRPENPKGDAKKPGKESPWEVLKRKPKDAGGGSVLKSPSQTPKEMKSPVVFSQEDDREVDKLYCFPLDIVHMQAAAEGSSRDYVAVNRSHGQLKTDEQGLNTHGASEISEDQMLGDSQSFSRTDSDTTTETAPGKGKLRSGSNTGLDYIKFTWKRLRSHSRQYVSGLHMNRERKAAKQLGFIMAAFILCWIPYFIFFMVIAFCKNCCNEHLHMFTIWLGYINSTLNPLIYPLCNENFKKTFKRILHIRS
Sequence of Adenosine receptor A2a (Homo sapiens) (P29274 whole entry): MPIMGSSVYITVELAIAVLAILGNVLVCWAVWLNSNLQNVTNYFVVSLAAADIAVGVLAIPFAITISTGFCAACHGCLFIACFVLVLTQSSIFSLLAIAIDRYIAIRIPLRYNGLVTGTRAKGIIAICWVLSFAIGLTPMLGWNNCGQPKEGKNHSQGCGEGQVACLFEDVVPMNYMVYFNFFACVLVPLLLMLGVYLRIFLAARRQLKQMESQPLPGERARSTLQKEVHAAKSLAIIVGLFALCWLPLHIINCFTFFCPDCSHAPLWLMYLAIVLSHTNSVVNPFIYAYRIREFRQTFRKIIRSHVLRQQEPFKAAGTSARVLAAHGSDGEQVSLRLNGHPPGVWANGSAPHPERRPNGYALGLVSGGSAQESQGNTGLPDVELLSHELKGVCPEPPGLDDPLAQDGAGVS
Sequence of 5-hydroxytryptamine receptor 6 (Homo sapiens) (P50406 whole entry): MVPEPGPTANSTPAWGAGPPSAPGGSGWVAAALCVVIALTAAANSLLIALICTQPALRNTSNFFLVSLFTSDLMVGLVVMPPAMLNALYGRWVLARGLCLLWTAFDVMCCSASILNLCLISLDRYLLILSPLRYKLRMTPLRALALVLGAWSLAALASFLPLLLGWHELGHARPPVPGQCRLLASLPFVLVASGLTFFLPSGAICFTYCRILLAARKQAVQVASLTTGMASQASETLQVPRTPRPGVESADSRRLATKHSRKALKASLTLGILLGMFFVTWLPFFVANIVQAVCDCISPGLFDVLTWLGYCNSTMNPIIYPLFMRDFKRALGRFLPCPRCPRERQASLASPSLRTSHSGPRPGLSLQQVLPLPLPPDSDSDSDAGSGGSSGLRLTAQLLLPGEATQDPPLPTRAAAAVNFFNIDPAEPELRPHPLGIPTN
Sequence of Activin receptor type-1B (Homo sapiens) (P36896 whole entry): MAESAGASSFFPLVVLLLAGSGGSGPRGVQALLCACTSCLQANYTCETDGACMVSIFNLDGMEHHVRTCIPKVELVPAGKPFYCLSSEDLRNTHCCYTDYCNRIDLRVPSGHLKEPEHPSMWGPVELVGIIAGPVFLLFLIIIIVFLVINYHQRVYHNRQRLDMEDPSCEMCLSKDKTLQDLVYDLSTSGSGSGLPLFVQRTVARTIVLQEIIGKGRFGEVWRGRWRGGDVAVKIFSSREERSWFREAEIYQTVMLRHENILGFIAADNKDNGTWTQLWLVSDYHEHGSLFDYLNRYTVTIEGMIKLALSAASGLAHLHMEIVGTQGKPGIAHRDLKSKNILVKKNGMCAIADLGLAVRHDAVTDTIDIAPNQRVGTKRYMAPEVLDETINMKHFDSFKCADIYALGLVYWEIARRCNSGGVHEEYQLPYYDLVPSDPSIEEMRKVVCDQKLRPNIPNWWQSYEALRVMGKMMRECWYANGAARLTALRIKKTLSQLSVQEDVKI
Sequence of Glycogen synthase kinase-3 alpha (Homo sapiens) (P49840 2-483 limits assumed): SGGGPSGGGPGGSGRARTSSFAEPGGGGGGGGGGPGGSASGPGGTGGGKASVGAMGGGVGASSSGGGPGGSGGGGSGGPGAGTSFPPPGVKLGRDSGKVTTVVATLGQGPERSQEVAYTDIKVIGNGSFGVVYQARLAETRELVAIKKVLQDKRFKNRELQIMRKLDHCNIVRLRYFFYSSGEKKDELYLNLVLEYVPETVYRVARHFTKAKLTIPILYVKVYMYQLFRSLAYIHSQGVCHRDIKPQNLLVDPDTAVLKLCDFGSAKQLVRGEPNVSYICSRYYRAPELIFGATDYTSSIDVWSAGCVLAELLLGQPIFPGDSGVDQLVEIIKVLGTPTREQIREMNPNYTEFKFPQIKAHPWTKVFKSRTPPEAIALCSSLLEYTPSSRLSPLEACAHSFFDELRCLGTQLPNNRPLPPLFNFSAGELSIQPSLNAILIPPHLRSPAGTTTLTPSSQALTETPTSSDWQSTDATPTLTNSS
Sequence of Muscarinic acetylcholine receptor M3 (Homo sapiens) (P20309 whole entry, looked up): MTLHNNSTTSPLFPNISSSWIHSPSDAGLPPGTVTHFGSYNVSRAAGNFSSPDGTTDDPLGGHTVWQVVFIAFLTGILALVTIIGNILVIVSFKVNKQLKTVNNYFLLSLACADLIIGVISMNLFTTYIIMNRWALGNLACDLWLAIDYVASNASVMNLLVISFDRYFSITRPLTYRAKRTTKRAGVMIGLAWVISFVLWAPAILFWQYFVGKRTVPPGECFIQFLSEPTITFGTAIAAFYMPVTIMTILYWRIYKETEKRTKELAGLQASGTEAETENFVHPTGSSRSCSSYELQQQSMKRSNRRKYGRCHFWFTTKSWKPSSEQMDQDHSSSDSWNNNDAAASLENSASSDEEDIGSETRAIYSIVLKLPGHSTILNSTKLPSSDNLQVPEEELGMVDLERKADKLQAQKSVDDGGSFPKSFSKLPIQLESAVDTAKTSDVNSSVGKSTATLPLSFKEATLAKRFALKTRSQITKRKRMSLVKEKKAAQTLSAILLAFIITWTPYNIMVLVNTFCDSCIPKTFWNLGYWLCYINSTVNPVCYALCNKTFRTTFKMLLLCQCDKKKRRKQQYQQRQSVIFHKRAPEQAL
Sequence of Serine/threonine-protein kinase pim-2 (Homo sapiens) (Q9P1W9 whole entry, looked up): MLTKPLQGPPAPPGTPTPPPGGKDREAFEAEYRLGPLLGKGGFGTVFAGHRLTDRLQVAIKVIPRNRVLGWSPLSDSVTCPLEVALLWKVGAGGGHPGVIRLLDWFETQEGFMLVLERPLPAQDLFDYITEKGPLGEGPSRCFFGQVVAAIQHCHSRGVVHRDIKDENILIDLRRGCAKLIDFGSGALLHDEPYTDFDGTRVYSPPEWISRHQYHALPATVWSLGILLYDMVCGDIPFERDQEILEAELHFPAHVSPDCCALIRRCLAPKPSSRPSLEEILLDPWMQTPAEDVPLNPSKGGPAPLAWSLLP
Sequence of D(2) dopamine receptor (Homo sapiens) (P14416 whole entry): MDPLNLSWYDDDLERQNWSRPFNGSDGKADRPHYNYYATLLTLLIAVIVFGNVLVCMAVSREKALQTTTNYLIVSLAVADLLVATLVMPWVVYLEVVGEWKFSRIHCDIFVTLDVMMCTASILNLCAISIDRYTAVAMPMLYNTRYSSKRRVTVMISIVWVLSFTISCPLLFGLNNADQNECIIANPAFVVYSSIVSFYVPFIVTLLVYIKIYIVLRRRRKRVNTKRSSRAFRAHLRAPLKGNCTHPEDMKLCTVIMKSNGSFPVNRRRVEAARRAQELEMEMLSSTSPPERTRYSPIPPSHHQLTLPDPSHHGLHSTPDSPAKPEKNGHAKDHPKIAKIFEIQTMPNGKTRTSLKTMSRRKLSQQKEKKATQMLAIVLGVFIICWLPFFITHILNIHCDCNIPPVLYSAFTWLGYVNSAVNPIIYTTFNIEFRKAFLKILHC

inhibition [1]: 16.8% | inhibition ([2]; Compound concentration 1.0 uM): 18% | inhibition ([2]; Compound concentration 10.0 uM): 30% | inhibition ([3]; Compound concentration 0.3 uM): -3.53% | inhibition ([3]; Compound concentration 1.0 uM): -5.27% | inhibition ([3]; Compound concentration 3.0 uM): 0.29% | inhibition ([4]; Compound concentration 1.0 uM): 18% | inhibition ([4]; Compound concentration 10.0 uM): 21% | inhibition [5]: 20% | inhibition [6]: 21% | inhibition ([7]; Compound concentration 0.3 uM): -0.894% | inhibition ([7]; Compound concentration 3.0 uM): -6.01% | inhibition [8]: 10% | inhibition [9]: 0.49% | inhibition [10]: -4% | inhibition ([11]; Compound concentration 1.0 uM): 20% | inhibition ([11]; Compound concentration 10.0 uM): 22% | inhibition [12]: 13% | inhibition [13]: 1% | inhibition [14]: 12.5% | inhibition [15]: 38% | inhibition [16]: 6% | inhibition [17]: 5.9% | inhibition [18]: 21% | inhibition [19]: 1% | inhibition [20]: -5% | inhibition [21]: 5% | inhibition [22]: 0%
SMILES: COc1nc2ccc([C@@](O)(c3ccccc3)C3CCN(C(C)=O)CC3)cc2c(Cl)c1Cc1ccc(-n2cccn2)cc1 [JNJ-54119936]
